Measured values as given in PMC7645366 (EMBO Molecular Medicine, 2020).
Several values for one entry are separate records, joined by “and”; a condition that tells them apart may be missing. Equal entries are not always repeated. Where two headings read alike, the source gives them in different places. No end group written: not given here.

Columns and labels:
[1] = target: T1, PLY (Streptococcus pneumoniae serotype 4, UniProt P0C2J9); conditions: for % cytotoxicity relative to positive control (lysis buffer), LDH: 18 h
[2] = system: S. pneumoniae T4; experiment: Mouse intranasal infection (pneumonia) model: survival, lung bacterial load, lung cytokines
Experimental: Six‐week‐old male C57BL/6 wild‐type mice were used (Charles River, Germany). The study included 10 mice/individual group which were randomly assigned to the different treatment groups. Sample size calculations were determined according to previous experience (Subramanian et al, 2019b). […] The mice were checked at least twice every day; morning at 9 am (referred as “early check”) and evening at 7 pm (referred as “late check”). Post‐mortem, lungs were collected and washed in PBS and homogenized by passing through the 100‐μm cell strainer. Bacterial counts were determined from lung homogenates by viable count on blood agar plates. Aliquots of lung homogenates were frozen at −80°C for cytokine quantification by ELISA.
The levels of TNF‐α, IL‐8, and IL‐12 (p70) in the culture supernatants and mouse lung tissue were analyzed using the OptEIA ELISA kit (BD Biosciences) following the manufacturer's instructions.

[3] = system: S. pneumoniae T4; experiment: Bacterial invasion assay, 3D lung epithelial models, CFU after gentamicin; type: cell-based, Streptococcus pneumoniae; conditions: for Mean Colonies at 100X dil, bacterial invasion of lung epithelium models / % entry bacteria= (bacteria uptaken/Input)*100: T4, MOI 10, 2h, 100 μM peptide
[4] = target: T1, PLY; type: cell-based
[5] = target: SLO (Streptococcus pyogenes serotype M1, UniProt P0C0I3)
[6] = Lung histology (H&E) and clinical symptoms after intranasal administration; conditions: mice
Experimental: (F) Hematoxylin and eosin (H&E) staining of mouse lungs at 24 h post intranasal

[7] = target: T2, LLO (Listeria monocytogenes serovar 1/2a, UniProt P13128); experiment: LDH cytotoxicity assay, THP-1 macrophages, LLO; type: cell-based; conditions: 100 μM, 18 h; for % cytotoxicity relative to positive control (lysis buffer), LDH: THP-1, LLO 0.5 μg/ml
Experimental: (§1) Human monocytic leukemia THP‐1 cells (ATCC TIB‐202) were cultivated in R10 medium and maintained at density of 10^6 cells/ml. For differentiation into macrophages, THP‐1 cells were treated for 48 h with 20 ng/ml of phorbol myristate acetate (Sigma).
Cytotoxicity was determined by measuring the activity of lactate dehydrogenase enzyme released into the culture supernatant using the Cytotoxicity Detection kit (Roche) according to the manufacturer's instructions. The percentage cytotoxicity was calculated by ratio to 100% lysis control (0.1% saponin).

[8] = system: S.pneumoniae T4R; experiment: Co-localization of intracellular T4R with MRC-1 and LC3B in DCs; type: cell-based, Streptococcus pneumoniae; conditions: for % bacteria colocalized with MRC-1 / % bacteria colocalized with LC3B / number of bacteria (of n=50) colocalized with LC3B / number of bacteria (of n=50) colocalized with MRC-1: T4R in DCs
[9] = target: T1, PLY; type: cell-based; remark: listed apart in the source
[10] = target: T1, PLY; type: cell-based; remark: listed apart in the source
[11] = system: S. pyogenes type M1T1; experiment: Co-localization of intracellular S. pyogenes with MRC-1 and LC3B in DCs; type: cell-based, Streptococcus pyogenes; conditions: 100 μM peptide
[12] = target: T2, LLO; experiment: Cytokine ELISA, THP-1 macrophages stimulated with LLO; type: cell-based; conditions: 18 h; for IL-8 levels in THP-1 macrophages: LLO 0.5 μg/ml, 100uM
Experimental: as §1

[13] = target: T1, PLY; type: cell-based; remark: listed apart in the source
[14] = system: S. pneumoniae strain T4; experiment: Hemolytic activity of whole bacteria, S. pneumoniae T4; type: cell-based, Streptococcus pneumoniae; conditions: 100 μM peptide
Experimental: (§2) Human blood from anonymous healthy donors (obtained from Karolinska University Hospital) was diluted 1:100 in PBS with 0.5 mM DTT and mixed 1:1 with twofold serial dilutions of 10^8 CFUs of bacteria or 1 μg/ml purified bacterial toxins in 96‐well plates. The MRC‐1 peptides were serially diluted 10‐fold (1–1,000 μM) in PBS and added to the wells prior to addition of blood. The blood was co‐incubated with whole bacteria or purified toxins at 37°C for 1 h, and after 50 min, 0.1% triton X‐100 was added to the positive control wells. Cells were spun down at 400 g for 15 min and the absorbance of the supernatants was measured at 540 nm in a microplate reader. Percentage of lysis compared to the toxin alone was calculated. All samples were assayed in triplicates.

[15] = target: T2, LLO; experiment: Live imaging of cytolysis of THP-1 macrophages by LLO; type: cell-based; conditions: 0.5 μg/ml LLO, 100 μM, 20 min
[16] = target: T2, LLO; experiment: Hemolysis assay with purified LLO; conditions: 1 μg/ml toxin
Experimental: as §2

T2 sequence (P13128 25-529): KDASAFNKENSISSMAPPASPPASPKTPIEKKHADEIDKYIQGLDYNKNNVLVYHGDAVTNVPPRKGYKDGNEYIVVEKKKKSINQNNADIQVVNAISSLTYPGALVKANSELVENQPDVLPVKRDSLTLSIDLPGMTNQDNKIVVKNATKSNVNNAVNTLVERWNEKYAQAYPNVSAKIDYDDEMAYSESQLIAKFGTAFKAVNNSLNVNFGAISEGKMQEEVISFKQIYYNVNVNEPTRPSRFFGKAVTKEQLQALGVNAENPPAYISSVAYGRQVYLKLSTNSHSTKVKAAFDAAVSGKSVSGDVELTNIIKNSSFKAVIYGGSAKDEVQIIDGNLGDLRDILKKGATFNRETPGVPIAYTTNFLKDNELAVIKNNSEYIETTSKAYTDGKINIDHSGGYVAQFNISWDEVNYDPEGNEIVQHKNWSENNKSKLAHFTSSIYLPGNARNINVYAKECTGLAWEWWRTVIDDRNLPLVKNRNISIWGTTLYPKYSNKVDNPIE
T1 sequence (P0C2J9 whole entry, looked up): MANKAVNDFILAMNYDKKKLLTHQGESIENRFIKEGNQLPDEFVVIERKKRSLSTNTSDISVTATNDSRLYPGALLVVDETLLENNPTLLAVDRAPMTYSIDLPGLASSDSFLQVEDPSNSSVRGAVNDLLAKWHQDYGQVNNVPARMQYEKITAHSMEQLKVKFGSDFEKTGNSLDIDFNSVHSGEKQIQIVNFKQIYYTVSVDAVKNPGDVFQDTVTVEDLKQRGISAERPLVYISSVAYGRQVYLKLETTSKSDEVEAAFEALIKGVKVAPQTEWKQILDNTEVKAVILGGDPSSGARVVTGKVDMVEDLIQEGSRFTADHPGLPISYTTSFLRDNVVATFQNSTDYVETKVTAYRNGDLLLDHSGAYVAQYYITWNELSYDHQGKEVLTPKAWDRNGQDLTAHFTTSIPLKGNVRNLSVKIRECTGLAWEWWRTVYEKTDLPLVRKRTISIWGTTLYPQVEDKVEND
Chain of SLO (P0C0I3 34-571 limits assumed): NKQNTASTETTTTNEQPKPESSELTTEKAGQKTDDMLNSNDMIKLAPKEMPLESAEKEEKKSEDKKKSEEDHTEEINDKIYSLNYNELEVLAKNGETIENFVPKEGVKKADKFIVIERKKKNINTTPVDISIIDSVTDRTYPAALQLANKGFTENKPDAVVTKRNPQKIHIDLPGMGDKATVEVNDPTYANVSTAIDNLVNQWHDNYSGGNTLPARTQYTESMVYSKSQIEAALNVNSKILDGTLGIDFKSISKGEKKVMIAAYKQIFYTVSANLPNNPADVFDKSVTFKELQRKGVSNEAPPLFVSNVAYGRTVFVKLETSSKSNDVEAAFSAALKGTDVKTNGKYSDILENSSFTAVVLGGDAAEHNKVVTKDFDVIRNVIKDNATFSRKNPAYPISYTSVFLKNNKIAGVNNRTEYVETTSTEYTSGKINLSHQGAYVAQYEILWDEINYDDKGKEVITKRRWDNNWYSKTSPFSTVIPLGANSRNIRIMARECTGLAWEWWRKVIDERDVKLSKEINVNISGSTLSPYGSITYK

Sequence: FTWSDGSPVSYEN [P2]
- cell death of macrophages induced by PLY, LDH release [1]: significantly reduced cell death
- % cytotoxicity relative to positive control (lysis buffer), LDH ([1]; 100 μM): 50.12% and 52.81% and 49.35%
- % cytotoxicity relative to positive control (lysis buffer), LDH [1]: 52.47%
- Mouse survival, death recorded ([2]; Mouse 1 of its group): 1
- Mouse survival, Time (coded) ([2]; Mouse 1 of its group, intranasal 2 × 10^6 CFU T4 with 5 μg peptide/mouse (25 μg CaP NPs)): 4
- CFU/ml in mouse lung homogenates ([2]; Mouse 2 of its group): 160000000 CFU/ml
- Mouse survival, Time (coded) ([2]; Mouse 2 of its group): 4
- Mouse survival, death recorded ([2]; Mouse 2 of its group): 1
- CFU/ml in mouse lung homogenates ([2]; Mouse 3 of its group): 160000000 CFU/ml
- Mouse survival, Time (coded) ([2]; Mouse 3 of its group): 5
- Mouse survival, death recorded ([2]; Mouse 3 of its group): 1
- CFU/ml in mouse lung homogenates ([2]; Mouse 4 of its group): 180000000 CFU/ml
- Mouse survival, Time (coded) ([2]; Mouse 4 of its group): 6
- Mouse survival, death recorded ([2]; Mouse 4 of its group): 0
- CFU/ml in mouse lung homogenates ([2]; Mouse 5 of its group): 100000000 CFU/ml
- Mouse survival, Time (coded) ([2]; Mouse 5 of its group): 4
- Mouse survival, death recorded ([2]; Mouse 5 of its group): 1
- CFU/ml in mouse lung homogenates ([2]; Mouse 6 of its group): 2.6E+07 CFU/ml
- Mouse survival, Time (coded) ([2]; Mouse 6 of its group): 4
- Mouse survival, death recorded ([2]; Mouse 6 of its group): 1
- CFU/ml in mouse lung homogenates ([2]; Mouse 7 of its group): 2.5E+07 CFU/ml
- Mouse survival, Time (coded) ([2]; Mouse 7 of its group): 4
- Mouse survival, death recorded ([2]; Mouse 7 of its group): 1
- CFU/ml in mouse lung homogenates ([2]; Mouse 8 of its group): 1.7E+07 CFU/ml
- Mouse survival, Time (coded) ([2]; Mouse 8 of its group): 4
- Mouse survival, death recorded ([2]; Mouse 8 of its group): 1
- CFU/ml in mouse lung homogenates ([2]; Mouse 9 of its group): 1.7E+07 CFU/ml
- Mouse survival, Time (coded) ([2]; Mouse 9 of its group): 4
- Mouse survival, death recorded ([2]; Mouse 9 of its group): 1
- CFU/ml in mouse lung homogenates ([2]; Mouse 10 of its group): 1.0E+07 CFU/ml
- Mouse survival, Time (coded) ([2]; Mouse 10 of its group): 5
- Mouse survival, death recorded ([2]; Mouse 10 of its group): 1
- IL-12 levels in mouse lung homogenates ([2]; animal in data line 1): 4502.5 pg/mL
- IL-12 levels in mouse lung homogenates ([2]; animal in data line 2): 3606.25 pg/mL
- TNF-a levels in lung ([2]; animal in data line 2): 645.91 pg/mL
- IL-12 levels in mouse lung homogenates ([2]; animal in data line 3): 5321.25 pg/mL
- TNF-a levels in lung ([2]; animal in data line 3): 377.50 pg/mL
- IL-12 levels in mouse lung homogenates ([2]; animal in data line 4): 8600 pg/mL
- TNF-a levels in lung ([2]; animal in data line 4): 853.64 pg/mL
- IL-12 levels in mouse lung homogenates ([2]; animal in data line 5): 7346.25 pg/mL
- TNF-a levels in lung ([2]; animal in data line 5): 703.86 pg/mL
- IL-12 levels in mouse lung homogenates ([2]; animal in data line 6): 6002.5 pg/mL
- TNF-a levels in lung ([2]; animal in data line 6): 679.08 pg/mL
- IL-12 levels in mouse lung homogenates ([2]; animal in data line 7): 5505 pg/mL
- TNF-a levels in lung ([2]; animal in data line 7): 828.95 pg/mL
- IL-12 levels in mouse lung homogenates ([2]; animal in data line 8): 3275 pg/mL
- TNF-a levels in lung ([2]; animal in data line 8): 612.89 pg/mL
- IL-12 levels in mouse lung homogenates ([2]; animal in data line 9): 4967.5 pg/mL
- TNF-a levels in lung ([2]; animal in data line 9): 782.63 pg/mL
- IL-12 levels in mouse lung homogenates ([2]; animal in data line 10): 8335 pg/mL
- TNF-a levels in lung ([2]; animal in data line 10): 757.37 pg/mL
- levels of TNF‐α and IL‐12 in the lung tissue ([2]; infected mice): significantly reduced
- TNF-a levels in lung ([2]; infected mice, post‐sacrifice, animal in data line 1): 263.18 pg/mL
- mouse survival ([2]; intranasal T4 2 × 10^6 CFUs, 5 μg peptide/mouse): prolonged survival
- CFU/ml in mouse lung homogenates ([2]; post‐mortem, Mouse 1 of its group): 160000000 CFU/ml
- number of invading bacteria in 3D lung epithelial model ([3]; T4, 100 μM peptide, 2 h): significantly reduced
- Mean Colonies at 100X dil, bacterial invasion of lung epithelium models ([3]; biological replicate n=1): 13.3
- % entry bacteria= (bacteria uptaken/Input)*100 ([3]; n=1): 2.25%
- % entry bacteria= (bacteria uptaken/Input)*100 ([3]; n=2): 2.59%
- Mean Colonies at 100X dil, bacterial invasion of lung epithelium models ([3]; n=2): 15.3
- % entry bacteria= (bacteria uptaken/Input)*100 ([3]; n=3): 2.54%
- Mean Colonies at 100X dil, bacterial invasion of lung epithelium models ([3]; n=3): 15
- release of IL‐8, TNF‐α and IL‐12 by THP-1 macrophages, PLY [4]: significantly reduced
- cell death of macrophages induced by SLO, LDH release [5]: significantly reduced cell death
- toxicity by lung histology analysis (H&E) ([6]; 24 h post intranasal administration, 5 µg peptide/mouse): not toxic
- clinical symptoms ([6]; 24 h post‐administration): did not develop any clinical symptoms
- cell death of macrophages induced by LLO, LDH release ([7]; THP-1, 0.5 μg/ml toxin): significantly reduced cell death
- % cytotoxicity relative to positive control (lysis buffer), LDH ([7]; experiment 1 of 4): 50.96%
- % cytotoxicity relative to positive control (lysis buffer), LDH ([7]; experiment 2 of 4): 55.95%
- % cytotoxicity relative to positive control (lysis buffer), LDH ([7]; experiment 3 of 4): 54.18%
- % cytotoxicity relative to positive control (lysis buffer), LDH ([7]; experiment 4 of 4): 52.24%
- co-localization of intracellular T4R with MRC‐1 and LC3B ([8]; DCs, 100 μM peptide): did not co‐localize with MRC‐1, but co‐stained with LC3B
- % bacteria colocalized with MRC-1 ([8]; MOI 10, 100 μM peptide, n=50 bacteria, experiment 1 of 2): 30%
- % bacteria colocalized with LC3B ([8]; experiment 1 of 2): 70%
- number of bacteria (of n=50) colocalized with LC3B ([8]; experiment 1 of 2): 35
- number of bacteria (of n=50) colocalized with MRC-1 ([8]; experiment 1 of 2): 15
- % bacteria colocalized with LC3B ([8]; experiment 2 of 2): 76%
- % bacteria colocalized with MRC-1 ([8]; experiment 2 of 2): 24%
- number of bacteria (of n=50) colocalized with LC3B ([8]; experiment 2 of 2): 38
- number of bacteria (of n=50) colocalized with MRC-1 ([8]; experiment 2 of 2): 12
- inhibition of PLY-induced hemolysis [9]: up to 50%
- inhibition of hemolysis induced by purified PLY [9]: up to 50%
- IC50 ([9]; read-out: ED50 (median effective dose) vs purified PLY, human, blood, 60 min): 6.6 µM
- loss of GFP expression in 3D lung epithelial model [10]: significantly lower
- co-staining of intracellular S. pyogenes M1T1 with LC3B [11]: co‐stained with LC3B
- release of IL‐8, TNF‐α and IL‐12 by THP-1 macrophages, LLO ([12]; 0.5 μg/ml toxin, 100 μM peptide): significantly reduced
- IL-8 levels in THP-1 macrophages ([12]; experiment 1 of 3): 437.8 pg/mL
- IL-8 levels in THP-1 macrophages ([12]; experiment 2 of 3): 441.8 pg/mL
- IL-8 levels in THP-1 macrophages ([12]; experiment 3 of 3): 448.5 pg/mL
- cytolysis by PLY in live imaging [13]: protection from cytolysis
- hemolytic activity of pneumococcal strain T4 [14]: significantly reduced
- %hemolytic activity relative to positive control (0.1% Triton X) ([14]; T4 312500 CFU/ml, experiment 1 of 3): -0.1%
- %hemolytic activity relative to positive control (0.1% Triton X) ([14]; T4 312500 CFU/ml, experiment 2 of 3): 4%
- %hemolytic activity relative to positive control (0.1% Triton X) ([14]; T4 312500 CFU/ml, experiment 3 of 3): 4.3%
- %hemolytic activity relative to positive control (0.1% Triton X) ([14]; T4 625000 CFU/ml, experiment 1 of 3): -0.4%
- %hemolytic activity relative to positive control (0.1% Triton X) ([14]; T4 625000 CFU/ml, experiment 2 of 3): 4.5%
- %hemolytic activity relative to positive control (0.1% Triton X) ([14]; T4 625000 CFU/ml, experiment 3 of 3): 4.7%
- %hemolytic activity relative to positive control (0.1% Triton X) ([14]; T4 12500000 CFU/ml, experiment 1 of 3): -0.7%
- %hemolytic activity relative to positive control (0.1% Triton X) ([14]; T4 12500000 CFU/ml, experiment 2 of 3): 4.6%
- %hemolytic activity relative to positive control (0.1% Triton X) ([14]; T4 12500000 CFU/ml, experiment 3 of 3): 4.6%
- %hemolytic activity relative to positive control (0.1% Triton X) ([14]; T4 25000000 CFU/ml, experiment 1 of 3): 0.2%
- %hemolytic activity relative to positive control (0.1% Triton X) ([14]; T4 25000000 CFU/ml, experiment 2 of 3): 4.4%
- %hemolytic activity relative to positive control (0.1% Triton X) ([14]; T4 25000000 CFU/ml, experiment 3 of 3): 20%
- %hemolytic activity relative to positive control (0.1% Triton X) ([14]; T4 50000000 CFU/ml, experiment 1 of 3): 15.6%
- %hemolytic activity relative to positive control (0.1% Triton X) ([14]; T4 50000000 CFU/ml, experiment 2 of 3): 19.9%
- %hemolytic activity relative to positive control (0.1% Triton X) ([14]; T4 50000000 CFU/ml, experiment 3 of 3): 19.6%
- %hemolytic activity relative to positive control (0.1% Triton X) ([14]; T4 100000000 CFU/ml, experiment 1 of 3): 32%
- %hemolytic activity relative to positive control (0.1% Triton X) ([14]; T4 100000000 CFU/ml, experiment 2 of 3): 30.8%
- %hemolytic activity relative to positive control (0.1% Triton X) ([14]; T4 100000000 CFU/ml, experiment 3 of 3): 19.1%
- cytolysis by LLO in live imaging [15]: protected the cells from cytolysis
- inhibition of hemolysis induced by purified LLO ([16]; at concentrations ranging from 10 to 100 μM): up to 50%
- IC50 ([16]; read-out: ED50 (median effective dose) vs purified LLO, hemolysis, regression analysis): 22.3 µM
